Laboratory results: the NIST ThermoML archive (doi:10.1016/j.fluid.2004.11.019)

Test: xn = mol fraction of the nth substance listed
Settings: 323.15 K, Liquid

CCO [ethanol] + O
mass density [kg/m3]
Settings | 100 kPa | 10000 kPa | 20000 kPa
x1 = 0.003 | – | 990.8 | 994.9
x1 = 0.0042 | – | 989.6 | 993.9
x1 = 0.0082 | – | 988.2 | 992.4
x1 = 0.0119 | – | 986.9 | 991.1
x1 = 0.0158 | – | 984.7 | 988.9
x1 = 0.0184 | – | 983.3 | 987.5
x1 = 0.0219 | – | 982.2 | 986.3
x1 = 0.0255 | – | 980.6 | 984.7
x1 = 0.0279 | – | 979 | 983.1
x1 = 0.0315 | – | 978.1 | 982.2
x1 = 0.0366 | – | 975.6 | 979.6
x1 = 0.0392 | – | 974.3 | 978.4
x1 = 0.0439 | – | 972.8 | 976.8
x1 = 0.0483 | – | 970.7 | 974.8
x1 = 0.0516 | – | 970 | 974
x1 = 0.0559 | – | 968.6 | 972.7
x1 = 0.06 | – | 967.1 | 971.2
x1 = 0.0652 | – | 965 | 969.1
x1 = 0.0679 | – | 964.3 | 968.3
x1 = 0.0722 | – | 962.5 | 966.6
x1 = 0.0801 | – | 959.3 | 963.4
x1 = 0.084 | – | 958.9 | 963
x1 = 0.0879 | – | 957.1 | 961.2
x1 = 0.0926 | – | 955.5 | 959.6
x1 = 0.0958 | – | 954.4 | 958.5
x1 = 0.1006 | – | 952.8 | 956.9
x1 = 0.1111 | – | 949 | 953.2
x1 = 0.1225 | – | 945.1 | –
x1 = 0.1296 | – | 942.6 | –
x1 = 0.1402 | – | 939 | –
x1 = 0.151 | – | 935.2 | –
x1 = 0.1601 | – | 932.2 | –
x1 = 0.1703 | – | 928.8 | –
x1 = 0.18 | 920.6 | 925.5 | –
x1 = 0.1903 | 917.3 | 922.1 | –
x1 = 0.1996 | 914.1 | 919 | –
x1 = 0.2269 | 905.2 | 910.3 | –
x1 = 0.2502 | 898.1 | 903.4 | –
x1 = 0.2745 | 890.8 | 896.3 | –
x1 = 0.3009 | 883.5 | 889.2 | –
x1 = 0.35 | 870.2 | 876.2 | –
x1 = 0.4034 | 857.3 | 863.7 | –
x1 = 0.4501 | 846.7 | 853.3 | –
x1 = 0.498 | 837 | 843.9 | –
x1 = 0.5501 | 826.9 | 834.3 | –
x1 = 0.5998 | 818.4 | 826.3 | –
x1 = 0.6489 | 810.1 | 817.9 | –
x1 = 0.6967 | 802.8 | 810.9 | –
x1 = 0.7475 | 795.4 | 803.8 | –
x1 = 0.7996 | 788.4 | 796.9 | –
x1 = 0.8484 | 781.9 | 790.8 | –
x1 = 0.8993 | 775.6 | 784.7 | –
x1 = 0.9503 | 769.5 | 779 | –
x1 = 1 | 763.7 | 773.4 | –
